The target of assay [1] is T1, AChE from electric eel (EeAChE) (Electrophorus electricus, UniProt O42275).
T1 construct: purchased Sigma-Aldrich
The assay can be described thus: biochemical. Here is the method: (§1) The test compounds were dissolved in a minimum volume of DMSO (1%) and were diluted using sodium phosphate buffer (0.1 M, pH 7.4). A reaction mixture containing 20 μL sodium phosphate buffer, 100 μL DTMB (1 mM) and 40 μL AChE (0.2 U/Ml)/BChE (0.3 U/mL) was incubated with 20 μL of various concentrations of test compounds at 37 °C for 15 min followed by the addition of the substrate (20 μL) acetylthiocholine iodide (1 mM) or S-butyrylthiocholine iodide (1 mM) and incubation for another 3 min. […] The inhibition per cent was calculated by the following expression: (1-Ai/Ac) × 100, where Ai and Ac were the absorbance obtained for AChE/BChE in the presence and absence of inhibitors, respectively. […]

Assay [2] deals with T2, BChE from equine serum (eqBChE) (Equus caballus, UniProt P81908).
T2 construct: butyrylcholinesterase (eqBChE, from equine serum); purchased Sigma-Aldrich; host or cells: equine serum
T2 sequence (P81908 whole entry): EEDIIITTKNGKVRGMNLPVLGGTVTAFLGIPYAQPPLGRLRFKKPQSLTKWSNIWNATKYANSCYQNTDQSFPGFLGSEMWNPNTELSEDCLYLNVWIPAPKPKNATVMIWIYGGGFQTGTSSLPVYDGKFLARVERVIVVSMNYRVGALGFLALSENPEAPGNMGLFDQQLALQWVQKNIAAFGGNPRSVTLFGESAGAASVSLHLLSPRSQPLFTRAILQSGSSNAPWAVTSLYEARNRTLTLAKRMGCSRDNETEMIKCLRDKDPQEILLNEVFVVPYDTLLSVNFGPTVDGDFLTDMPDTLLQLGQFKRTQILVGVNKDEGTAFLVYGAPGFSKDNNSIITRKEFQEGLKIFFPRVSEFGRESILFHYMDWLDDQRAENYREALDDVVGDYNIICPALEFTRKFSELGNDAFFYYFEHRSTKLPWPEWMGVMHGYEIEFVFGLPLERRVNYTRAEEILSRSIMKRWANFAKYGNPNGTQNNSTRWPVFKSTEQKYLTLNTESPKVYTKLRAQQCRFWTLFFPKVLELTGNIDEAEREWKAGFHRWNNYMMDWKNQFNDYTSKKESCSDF
The assay can be described thus: biochemical. As for the experimental part: as §1

The target in the next assay is T3, PARP-1 enzyme (Homo sapiens, UniProt P09874).
T3 construct: purchased Trevigen 4690–096-K
T3 sequence (P09874 whole entry): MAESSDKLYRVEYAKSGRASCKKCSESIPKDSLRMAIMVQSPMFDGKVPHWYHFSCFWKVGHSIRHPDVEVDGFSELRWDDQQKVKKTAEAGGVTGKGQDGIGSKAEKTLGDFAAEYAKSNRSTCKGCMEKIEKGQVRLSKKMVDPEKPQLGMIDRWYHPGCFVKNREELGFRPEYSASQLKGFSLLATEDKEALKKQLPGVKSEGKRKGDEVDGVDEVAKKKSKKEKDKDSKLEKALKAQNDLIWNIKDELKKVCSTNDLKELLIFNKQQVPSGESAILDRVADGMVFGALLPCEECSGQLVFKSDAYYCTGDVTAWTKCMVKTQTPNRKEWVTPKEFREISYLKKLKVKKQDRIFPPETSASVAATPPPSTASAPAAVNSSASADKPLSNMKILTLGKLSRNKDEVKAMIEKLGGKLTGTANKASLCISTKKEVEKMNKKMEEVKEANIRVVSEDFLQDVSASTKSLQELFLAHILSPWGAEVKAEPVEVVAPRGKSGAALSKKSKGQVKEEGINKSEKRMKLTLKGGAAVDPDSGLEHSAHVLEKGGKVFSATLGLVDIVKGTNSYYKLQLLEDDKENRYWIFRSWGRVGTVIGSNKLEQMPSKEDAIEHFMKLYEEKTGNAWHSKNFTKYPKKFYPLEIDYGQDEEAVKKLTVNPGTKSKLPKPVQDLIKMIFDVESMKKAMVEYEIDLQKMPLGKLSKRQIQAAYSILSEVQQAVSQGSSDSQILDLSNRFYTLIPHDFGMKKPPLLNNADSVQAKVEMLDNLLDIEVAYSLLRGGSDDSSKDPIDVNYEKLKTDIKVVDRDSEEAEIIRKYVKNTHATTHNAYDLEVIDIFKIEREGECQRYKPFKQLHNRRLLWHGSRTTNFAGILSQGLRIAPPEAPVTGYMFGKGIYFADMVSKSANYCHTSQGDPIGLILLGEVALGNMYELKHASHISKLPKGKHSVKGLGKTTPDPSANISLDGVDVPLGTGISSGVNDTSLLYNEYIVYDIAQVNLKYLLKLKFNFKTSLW
The assay can be described thus: biochemical. Conditions: mean ± SD, n=3; for inhibition at 0.5 µM: PARP-1, measured at the conc. of 0.5 μM, read-out: Inhibition rate (%). As for the experimental part:
Olaparib was used as positive control. […] Then, the standard curve was drawn and the inhibition rate of each test compound was calculated.

Assay [3] deals with breast cancer cell line MDA-MB-436. As to the kind of experiment: MTT assay for cell growth inhibition. Type of assay: cell-based. Particulars: Homo sapiens, read-out: EC50 (μM) MDA-MB-436 cell inhibitory activity. Here is the method:
The anti-proliferative activities of synthesized compounds were assessed against breast cancer cell line MDA-MB-436 by the 3-(4, 5-Dimethylthiazol-2-yl)-2,5-diphenyltetrazolium bromide (MTT) assay. The MDA-MB-436 cell was purchased from Chinese Academy of Sciences. […]. After treated with compounds for 72 h, cells were incubated with 20 μL of 5 mg/mL MTT for 4 h. The culture medium was removed, and 150 μL DMSO was added to dissolve the formazan crystals. Wells containing only media were used for background correction. The optical density was measured spectrophotometrically at 490 nm. EC50 values were calculated using GraphPad Prism 6 software. Data were expressed as mean ± SEM.
Background: Tetrazolium assays rely on reduction of a dye to a coloured formazan, in cell work by metabolically active cells.

Where [4] appears, read: AChE from electric eel, mean ± SD, n=3, read-out: IC50 (μM) AChE.
Setting [5] is: BChE from equine serum, mean ± SD, n=3, read-out: IC50 (μM) BChE.
[6] abbreviates: MDA-MB-436, MTT, incubated for 72 h, mean ± SD, n=3, concentration required to reduce cell proliferation by 50%.

Read-outs that look alike come from different tables or passages of the source.

T1 sequence (O42275 24-633): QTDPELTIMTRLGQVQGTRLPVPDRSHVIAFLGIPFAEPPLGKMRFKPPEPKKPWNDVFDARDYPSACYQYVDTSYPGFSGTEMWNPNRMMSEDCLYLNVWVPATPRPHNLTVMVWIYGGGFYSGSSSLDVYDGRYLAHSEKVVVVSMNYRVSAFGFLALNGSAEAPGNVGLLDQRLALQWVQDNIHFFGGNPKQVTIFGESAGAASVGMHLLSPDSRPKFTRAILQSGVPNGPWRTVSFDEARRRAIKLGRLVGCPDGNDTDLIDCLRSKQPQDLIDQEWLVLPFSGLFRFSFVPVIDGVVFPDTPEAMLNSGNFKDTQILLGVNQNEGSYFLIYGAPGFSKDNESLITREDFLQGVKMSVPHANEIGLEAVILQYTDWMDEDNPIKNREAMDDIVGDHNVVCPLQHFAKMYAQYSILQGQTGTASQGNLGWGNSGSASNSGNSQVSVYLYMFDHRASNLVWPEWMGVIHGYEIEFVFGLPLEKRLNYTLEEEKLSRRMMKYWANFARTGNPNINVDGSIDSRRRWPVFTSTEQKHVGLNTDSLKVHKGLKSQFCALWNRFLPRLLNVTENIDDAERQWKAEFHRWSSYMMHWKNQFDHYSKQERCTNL

For the molecule `O=C(/C=C/c1ccccc1)N1CCN(C(=O)c2cc(Cc3n[nH]c(=O)c4ccccc34)ccc2F)CC1` [5a, (E)-4-{[3-[4-(3-phenylacryloyl)piperazine-1-carbonyl]-4-fluorophenyl]methyl}-2H-phthalazin-1-one], the values for the IC50 in assay [1] (setting [4]) and in assay [2] (setting [5]) were 52.9 ± 3.02 µM and 22.4 ± 1.19 µM, respectively. For the same molecule, at PARP-1 enzyme, the inhibition (in general, the drop in the measured response relative to a control, in per cent) at 0.5 µM was determined as 75.2 ± 4.84%. In assay [3] (setting [6]), the EC50 (usually the concentration that produces a half-maximal response) is 38.2 ± 2.15 µM.

As for `COc1ccc(/C=C/C(=O)N2CCN(C(=O)c3cc(Cc4n[nH]c(=O)c5ccccc45)ccc3F)CC2)cc1OC` [5b, (E)-4-{[3-[4–(3-(3,4-dimethoxyphenyl)acryloyl)piperazine-1-carbonyl]-4-fluorophenyl]methyl}-2H-phthalazin-1-one], the IC50 (as a rule, the concentration at which inhibition is half-maximal) stood at 45.2 ± 1.38 µM in assay [1] (setting [4]) and 17.8 ± 0.72 µM in assay [2] (setting [5]). Moreover, the inhibition at 0.5 µM on PARP-1 enzyme is 77.2 ± 3.89%. Besides, the half-maximal effective concentration (EC50) in assay [3] (setting [6]) was 41.2 ± 1.95 µM.

`COc1ccc(/C=C/C(=O)N2CCN(C(=O)c3cc(Cc4n[nH]c(=O)c5ccccc45)ccc3F)CC2)cc1` [5c, (E)-4-{[3-[4–(3-(4-methoxyphenyl)acryloyl)piperazine-1-carbonyl]-4-fluorophenyl]methyl} -2H-phthalazin-1-one]: the IC50 in assay [1] (setting [4]) stood at 55.8 ± 0.6 µM; in assay [2] (setting [5]) it was 179 ± 5.89 µM; against PARP-1 enzyme, 144 ± 5.26 nM. Further, the inhibition at 0.5 µM on PARP-1 enzyme was determined as 89.2 ± 10.6%. Moreover, the EC50 in assay [3] (setting [6]) worked out at 14.2 ± 3.16 µM.

With `Cc1ccc(/C=C/C(=O)N2CCN(C(=O)c3cc(Cc4n[nH]c(=O)c5ccccc45)ccc3F)CC2)cc1` [5d, (E)-4-{[3-[4-(3-(4-methylphenyl)acryloyl)piperazine-1-carbonyl]-4-fluorophenyl]methyl} -2H-phthalazin-1-one], the IC50 was found to be 72 ± 3.84 µM in assay [1] (setting [4]) and 27.8 ± 0.87 µM in assay [2] (setting [5]). The inhibition at 0.5 µM at PARP-1 enzyme is 64.2 ± 4.59%. Moreover, in assay [3] (setting [6]), the EC50 is 35.1 ± 3.42 µM.

In the case of `COc1ccccc1/C=C/C(=O)N1CCN(C(=O)c2cc(Cc3n[nH]c(=O)c4ccccc34)ccc2F)CC1` [5e, (E)-4-{[3-[4-(3-(2-methoxyphenyl)acryloyl)piperazine-1-carbonyl]-4-fluorophenyl]methyl}-2H-phthalazin-1-one], the IC50 was 56.9 ± 4.3 µM in assay [1] (setting [4]) and 26.4 ± 1.93 µM in assay [2] (setting [5]). Besides, the inhibition at 0.5 µM at PARP-1 enzyme was 62.6 ± 3.65%. In addition, in assay [3] (setting [6]), the EC50 was 44.2 ± 1.95 µM.

In the case of `COc1ccc(OC)c(/C=C/C(=O)N2CCN(C(=O)c3cc(Cc4n[nH]c(=O)c5ccccc45)ccc3F)CC2)c1` [5f, (E)-4-{[3-[4–(3-(2,5-dimethoxyphenyl)acryloyl)piperazine-1-carbonyl]-4-fluorophenyl]methyl} -2H-phthalazin-1-one], the results for the IC50 in assay [1] (setting [4]) and in assay [2] (setting [5]) were 76.9 ± 4.13 µM and 35.7 ± 2.98 µM, respectively. In addition, on PARP-1 enzyme, the inhibition at 0.5 µM was 75.6 ± 3.61%. Also, the EC50 in assay [3] (setting [6]) was determined as 30.2 ± 3.25 µM.

On to `O=C(/C=C/c1ccc(F)cc1)N1CCN(C(=O)c2cc(Cc3n[nH]c(=O)c4ccccc34)ccc2F)CC1` [5g, (E)-4-{[3-[4–(3-(4-fluorophenyl)acryloyl)piperazine-1-carbonyl]-4-fluorophenyl]methyl} -2H -phthalazin-1-one], for which the results for the IC50 (in assay [1] (setting [4]); in assay [2] (setting [5]); on PARP-1 enzyme) were 173 ± 30 µM, 105 ± 12.5 µM and 397 ± 7.01 nM, respectively. Moreover, on PARP-1 enzyme, the inhibition at 0.5 µM amounted to 85.6 ± 3.69%. Further, in assay [3] (setting [6]), the EC50 turned out to be 13 ± 2.14 µM.

As for `O=C(/C=C/c1ccc(C(F)(F)F)cc1)N1CCN(C(=O)c2cc(Cc3n[nH]c(=O)c4ccccc34)ccc2F)CC1` [5h, (E)-4-{[3-[4–(3-(4-trifluoromethylphenyl)acryloyl)piperazine-1-carbonyl]-4-fluorophenyl]methyl} -2H -phthalazin-1-one], the IC50 in assay [1] (setting [4]) was determined as 136 ± 12.5 µM; in assay [2] (setting [5]), 56.8 ± 4.36 µM; against PARP-1 enzyme, 295 ± 8.25 nM. Also, the inhibition at 0.5 µM on PARP-1 enzyme came to 89.5 ± 12.6%. Also, in assay [3] (setting [6]), the EC50 was 14.8 ± 1.42 µM.

For the molecule `O=C(/C=C/c1cccc(F)c1)N1CCN(C(=O)c2cc(Cc3n[nH]c(=O)c4ccccc34)ccc2F)CC1` [5i, (E)-4-{[3-[4–(3-(3-fluorophenyl)acryloyl)piperazine-1-carbonyl]-4-fluorophenyl]methyl} -2H -phthalazin-1-one], the IC50 in assay [1] (setting [4]) stood at 110 ± 9.18 µM; in assay [2] (setting [5]), 33.4 ± 4.14 µM; against PARP-1 enzyme, 267 ± 9.32 nM. Moreover, at PARP-1 enzyme, the inhibition at 0.5 µM was found to be 88.2 ± 5.24%. Besides, the EC50 in assay [3] (setting [6]) was 14.2 ± 5.21 µM.

Consider `O=C(/C=C/c1ccc(Cl)cc1)N1CCN(C(=O)c2cc(Cc3n[nH]c(=O)c4ccccc34)ccc2F)CC1` [5j, (E)-4-{[3-[4–(3-(4-chlorophenyl)acryloyl)piperazine-1-carbonyl]-4-fluorophenyl]methyl} -2H -phthalazin-1-one], for which the IC50 amounted to 86.5 ± 5.12 µM in assay [1] (setting [4]) and 37.1 ± 2.37 µM in assay [2] (setting [5]). Further, the inhibition at 0.5 µM on PARP-1 enzyme came to 75.5 ± 4.54%. Also, the EC50 in assay [3] (setting [6]) amounted to 45.2 ± 1.68 µM.

Turning to `O=C(/C=C/c1ccc(Br)cc1)N1CCN(C(=O)c2cc(Cc3n[nH]c(=O)c4ccccc34)ccc2F)CC1` [5k, (E)-4-{[3-[4–(3-(4-bromophenyl)acryloyl)piperazine-1-carbonyl]-4-fluorophenyl]methyl} -2H -phthalazin-1-one], the figures for the IC50 in assay [1] (setting [4]) and in assay [2] (setting [5]) were 80.7 ± 4.87 µM and 45.8 ± 3.76 µM, respectively. In addition, the inhibition at 0.5 µM at PARP-1 enzyme worked out at 43.2 ± 6.54%. In assay [3] (setting [6]), the EC50 is 112 ± 5.24 µM.

On to `O=C(/C=C/c1cccc([N+](=O)[O-])c1)N1CCN(C(=O)c2cc(Cc3n[nH]c(=O)c4ccccc34)ccc2F)CC1` [5l, (E)-4-{[3-[4–(3-(3-nitrophenyl)acryloyl)piperazine-1-carbonyl]-4-fluorophenyl]methyl} -2H -phthalazin-1-one], for which the IC50 was found to be 24.6 ± 1.1 µM in assay [1] (setting [4]), 9.16 ± 0.91 µM in assay [2] (setting [5]) and 16.1 ± 1.25 nM against PARP-1 enzyme. On PARP-1 enzyme, the inhibition at 0.5 µM worked out at 95.7 ± 4.35%. The EC50 in assay [3] (setting [6]) was 11.6 ± 2.15 µM.

Turning to `O=C(/C=C/c1ccc([N+](=O)[O-])cc1)N1CCN(C(=O)c2cc(Cc3n[nH]c(=O)c4ccccc34)ccc2F)CC1` [5m, (E)-4-{[3-[4–(3-(4-nitrophenyl)acryloyl)piperazine-1-carbonyl]-4-fluorophenyl]methyl} -2H -phthalazin-1-one], the IC50 in assay [1] (setting [4]) amounted to 12.2 ± 0.49 µM; in assay [2] (setting [5]) it was 5.93 ± 0.19 µM; at PARP-1 enzyme, 37.9 ± 1.89 nM. For the same molecule, the inhibition at 0.5 µM at PARP-1 enzyme turned out to be 93.2 ± 5.28%. The EC50 in assay [3] (setting [6]) is 14 ± 1.28 µM.

Turning to `COc1cc(/C=C/C(=O)N2CCN(C(=O)c3cc(Cc4n[nH]c(=O)c5ccccc45)ccc3F)CC2)cc(OC)c1OC` [5n, (E)-4-{[3-[4–(3-(3,4,5-trimethoxyphenyl)acryloyl)piperazine-1-carbonyl]-4-fluorophenyl]methyl} -2H -phthalazin-1-one], the values for the IC50 in assay [1] (setting [4]) and in assay [2] (setting [5]) were 99.1 ± 2.21 µM and 65.2 ± 1.08 µM, respectively. For the same molecule, on PARP-1 enzyme, the inhibition at 0.5 µM came out at 66 ± 4.82%. Further, the EC50 in assay [3] (setting [6]) was 31.2 ± 4.12 µM.

In the case of `O=C(/C=C/c1ccco1)N1CCN(C(=O)c2cc(Cc3n[nH]c(=O)c4ccccc34)ccc2F)CC1` [5o, (E)-4-{[3-[4-(3-(furan-2-yl)acryloyl)piperazine-1-carbonyl]-4-fluorophenyl]methyl} -2H -phthalazin-1-one], the IC50 in assay [1] (setting [4]) is 114 ± 14.9 µM; in assay [2] (setting [5]), 77.6 ± 9.06 µM. For the same molecule, the inhibition at 0.5 µM on PARP-1 enzyme was determined as 65.2 ± 5.98%. The EC50 in assay [3] (setting [6]) worked out at 32.2 ± 3.58 µM.

In the case of `CN(C)C(=O)Oc1cccc([N+](C)(C)C)c1` [Neostigmine, reference compound], the figures for the IC50 in assay [1] and in assay [2] were 0.04 ± 0.01 µM and 12 ± 0.45 µM, respectively.

Turning to `O=C(c1cc(Cc2n[nH]c(=O)c3ccccc23)ccc1F)N1CCN(C(=O)C2CC2)CC1` [Olaparib], the IC50 came out at 50.95 ± 0.46 µM in assay [1] (setting [4]) and 34.4 ± 0.64 µM in assay [2] (setting [5]). For the same molecule, the EC50 in assay [3] (MDA-MB-436, 72 h) was 8.63 ± 1.25 µM.

Source of the values: article PMC6237161, “Synthesis, preliminarily biological evaluation and molecular docking study of new Olaparib analogues as multifunctional PARP-1 and cholinesterase inhibitors” (Journal of Enzyme Inhibition and Medicinal Chemistry, 2018).
